Here are results for one compound from patent publication US20210369615A1, “SOLID ORAL FORMULATIONS OF AMPHOTERICIN B” (iCo Therapeutics Inc., priority 2018, published 2021).

The series is described as follows: Stability study: related substances (% area) after storage. It counts as physicochemical. How it is done:
A stability study was initiated for Formulation 1A and Formulation 2A. The capsules were packaged in 30 cc HDPE bottles with induction sealed PP caps and the bottles were stored under ICH stability conditions in humidity chambers at 25° C./60% RH and under accelerated conditions, 40° C./75% RH. The capsules were stored at 4-8° C. directly after preparation until they were placed into the stability chambers. […]
Another stability study was initiated for Formulation 5A. The capsules were packaged as per Formulation 1A and Formulation 2A and store under the same conditions.
An Amphotericin B/TPGS/Peceol/Gelucire 44/14 semi-solid lipid based formulation in hard shell capsule was prepared (Formulation 5A) and stored under ICH controlled stability conditions. […] The dissolution profile however decreased (Table 23 and FIG. 9). As indicated before, this behavior could be a result a recrystallization or aggregation of the AmpB.

Where “and” joins values, the source holds several entries; their conditions need not be identical. Equal entries are not always repeated.

Turning to `C[C@@H]1[C@H](O)[C@@H](C)/C=C/C=C/C=C/C=C/C=C/C=C/C=C/[C@H](O[C@@H]2O[C@H](C)[C@@H](O)[C@H](N)[C@@H]2O)C[C@@H]2O[C@](O)(C[C@@H](O)C[C@@H](O)[C@H](O)CC[C@@H](O)C[C@@H](O)CC(=O)O[C@H]1C)C[C@H](O)[C@H]2C(=O)O` [AmpB (Corealis lot drawing 729)], the “Related Substances, Total % area” value came out at 7.67 % area (T = 0); 7.71 % area (T = 1 month 40° C./75% RH); 7.38 % area (T = 3 months 25° C./60% RH); 7.18 % area (T = 6 months 25° C./60% RH); 7.32 % area (T = 6 months 40° C./75% RH). The “Related Substances, individual peak % area” value was 0.54 % area and 0.12 % area (2×) and 0.32 % area and 0.33 % area and 0.24 % area and 0.60 % area and 0.31 % area and 0.65 % area and 0.69 % area and 0.30 % area and 1.00 % area and 1.47 % area and 0.82 % area and 0.14 % area (T = 0, individual peaks ≥ 0.10%, RRT given); 0.79 % area and 0.13 % area and 0.57 % area and 0.16 % area and 0.32 % area and 0.33 % area and 0.24 % area and 0.59 % area and 0.31 % area (2×) and 0.11 % area and 0.62 % area and 0.69 % area and 1.00 % area and 1.52 % area (T = 1 month 40° C./75% RH, individual peaks, RRT); 0.14 % area (2×) and 0.78 % area and 0.15 % area (3×) and 0.48 % area and 0.35 % area and 0.22 % area and 0.54 % area and 0.25 % area and 0.57 % area and 0.77 % area and 0.13 % area and 0.16 % area and 1.03 % area and 1.37 % area (T = 3 months 25° C./60% RH, individual peaks, RRT); 0.12 % area and 0.86 % area and 0.14 % area (2×) and 0.52 % area and 0.64 % area and 0.20 % area and 0.71 % area (2×) and 0.56 % area and 0.10 % area and 0.15 % area and 1.01 % area and 1.32 % area (T = 6 months 25° C./60% RH, individual peaks, RRT).
